In data set [1] the test system is SK-OV-3. Kind of data set: Cytotoxicity against human SKOV3 cells under hypoxic condition after 5 days by SRB assay. It counts as functional, cell-based. Particulars: SK-OV-3, 120 h. (In SRB staining, fixed cells bind dye roughly in proportion to their protein.)
Data set [2] concerns SK-OV-3. Kind of data set: Cytotoxicity against human SKOV3 cells under aerobic condition after 5 days by SRB assay. To be noted: SK-OV-3, 120 h. It counts as functional, cell-based.
Data set [3] relates to HT-29. Put plainly: Hypoxic cytotoxicity ratio IC50 for human HT-29 cells under aerobic condition to IC50 for human HT-29 cells under hypoxic condition. It counts as functional.
Data set [4] relates to HT-29. Put plainly: Cytotoxicity against human HT-29 cells under aerobic condition after 5 days by SRB assay. Particulars: HT-29, 120 h. It counts as functional, cell-based.
Data set [5] deals with SK-OV-3. Put plainly: Hypoxic cytotoxicity ratio IC50 for human SKOV3 cells under aerobic condition to IC50 for human HT-29 cells under hypoxic condition. It counts as functional.
Data set [6] deals with HT-29. Kind of data set: Cytotoxicity against human HT-29 cells under hypoxic condition after 5 days by SRB assay. It counts as functional, cell-based. Particulars: HT-29, 120 h.
For data set [7], the system named is HT-29. Kind of data set: Antitumor activity against human HT-29 cells xenografted in CD1 mouse after 18 hrs. It counts as functional, cell-based. (In general: In xenograft studies the graft and the host belong to different species.)
The nature of data set [8]: AUC (0 to 180 mins) in CD1 mouse at 23.7 umol/kg, iv. Also on record: time < 3 hr, dose 23.7 umol/kg, route intravenous. It counts as ADME, organism-based. Particulars: plasma.
Data set [9] in a line: Toxicity against human HT-29 xenografted ip dosed CD1 mouse assessed as maximum tolerated dose. It counts as organism-based. To be noted: in vivo, read-out: Activity.
Data set [10] can be described thus: Plasma concentration in CD1 mouse at 23.7 umol/kg, iv after 15 mins. It counts as ADME, organism-based.

SMILES strings stand for the structures. Calls of active or inactive are those of the source. The calls are words filed in the database; no cut-off is given here.

In general, IC50 refers to the point on the concentration scale where inhibition reaches its midpoint. `CNS(=O)(=O)c1ccc2c3c(cc([N+](=O)[O-])c2c1)N(C(=O)c1cc2cc(OCCN(C)C)ccc2[nH]1)CC3CCl` (stereo not given): the IC50 is 120 nM with SK-OV-3 [1], 2600 nM in the data set on SK-OV-3 [2], 2700 nM with HT-29 [4] and 130 nM in the data set on HT-29 [6]. Besides, the “Ratio IC50” value with HT-29 [3] is on record as 24; in the data set on SK-OV-3 [5] it was 21.
On to `CN(C)CCOc1ccc2[nH]c(C(=O)N3CC(CCl)c4c3cc([N+](=O)[O-])c3cc(S(=O)(=O)N(C)C)ccc43)cc2c1` (stereo not given), for which the IC50 turned out to be 210 nM with SK-OV-3 [1], 500 nM in the data set on SK-OV-3 [2], 1100 nM in the data set on HT-29 [4] and 370 nM in the data set on HT-29 [6]. The results for the “Ratio IC50” value in the data set with HT-29 [3] and in the data set on SK-OV-3 [5] were 3.6 and 2.4, respectively.
For `CNS(=O)(=O)c1ccc2c3c(cc(N)c2c1)N(C(=O)c1cc2cc(OCCN(C)C)ccc2[nH]1)CC3CCl` (stereo not given), the half-maximal inhibitory concentration (IC50) in the data set on SK-OV-3 [1] turned out to be 11 nM; in the data set with SK-OV-3 [2], 20 nM; in the data set on HT-29 [4], 24 nM; with HT-29 [6] it was 20 nM.
Broadly, the AUC(0-t) is exposure summed from dosing to a finite time, without extrapolation to infinity. The low end stands for low exposure, the high end for high exposure. `CN(C)CCNS(=O)(=O)c1ccc2c3c(cc([N+](=O)[O-])c2c1)N(C(=O)c1cc2cc(OCCN(C)C)ccc2[nH]1)CC3CCl` (stereo not given): in the data set with HT-29 [7], the outcome was inactive. In addition, in data set [8], the AUC(0-t) at 3 h is under 0.03 µM·h. Also, the MTD in data set [9] worked out at 23.7 µmol/kg. Also, the IC50 was found to be 6.6 nM with SK-OV-3 [1], 830 nM in the data set on SK-OV-3 [2], 730 nM with HT-29 [4] and 9 nM in the data set on HT-29 [6]. Moreover, the “Ratio IC50” value in the data set with HT-29 [3] came out at 110; in the data set with SK-OV-3 [5], 130. Besides, in data set [10], the concentration at […] was under 10 nM.
Consider `CN(C)CCOc1ccc2[nH]c(C(=O)N3CC(CCl)c4c3cc([N+](=O)[O-])c3cc(S(=O)(=O)NN)ccc43)cc2c1` (stereo not given), for which the IC50 with SK-OV-3 [1] was 210 nM; in the data set on SK-OV-3 [2], 33000 nM; in the data set with HT-29 [4] it was 31000 nM; in the data set on HT-29 [6], 160 nM. For the same compound, the entries for the “Ratio IC50” value in the data set on HT-29 [3] and in the data set with SK-OV-3 [5] were 220 and 160, respectively.
With `CN(C)CCOc1ccc2[nH]c(C(=O)N3CC(CCl)c4c3cc([N+](=O)[O-])c3cc(S(=O)(=O)NO)ccc43)cc2c1` (stereo not given), the IC50 in the data set on SK-OV-3 [1] was determined as 450 nM; with SK-OV-3 [2], 24000 nM; in the data set on HT-29 [4] it was 24000 nM; in the data set on HT-29 [6] it was 150 nM. The “Ratio IC50” value in the data set on HT-29 [3] is recorded as 160; with SK-OV-3 [5], 55.
Turning to `CN(C)CCOc1ccc2[nH]c(C(=O)N3CC(CCl)c4c3cc([N+](=O)[O-])c3cc(S(N)(=O)=O)ccc43)cc2c1` (stereo not given), the IC50 amounted to 28 nM with SK-OV-3 [1], 6900 nM in the data set with SK-OV-3 [2], 4600 nM in the data set with HT-29 [4] and 18 nM in the data set on HT-29 [6].
Regarding `CN(C)CCOc1ccc2[nH]c(C(=O)N3CC(CCl)c4c3cc([N+](=O)[O-])c3cc(N)ccc43)cc2c1` (stereo not given), the IC50 amounted to 1300 nM in the data set with SK-OV-3 [1], 2500 nM with SK-OV-3 [2], 1800 nM in the data set with HT-29 [4] and 760 nM in the data set on HT-29 [6]. The “Ratio IC50” value in the data set on HT-29 [3] was 2.4; with SK-OV-3 [5], 2.
For the compound `COc1cc2cc(C(=O)N3CC(CCl)c4c3cc([N+](=O)[O-])c3cc(C(=O)NCCN(C)C)ccc43)[nH]c2c(OC)c1OC` (stereo not given), the IC50 in the data set on SK-OV-3 [1] came to 140 nM; with SK-OV-3 [2], 2000 nM; in the data set on HT-29 [4], 1500 nM; with HT-29 [6] it was 300 nM. The “Ratio IC50” value with HT-29 [3] amounted to 5.9; in the data set with SK-OV-3 [5], 24.
For the compound `COc1cc2cc(C(=O)N3CC(CCl)c4c3cc([N+](=O)[O-])c3ccc(C(=O)NCCN(C)C)cc43)[nH]c2c(OC)c1OC` (stereo not given), the IC50 with SK-OV-3 [1] came to 180 nM; in the data set on SK-OV-3 [2], 2500 nM; in the data set on HT-29 [4] it was 1300 nM; with HT-29 [6], 540 nM. Moreover, the “Ratio IC50” value in the data set on HT-29 [3] was 2.4; with SK-OV-3 [5], 16.

Values taken from ChEMBL document CHEMBL1177682, “Hypoxic selectivity and solubility--investigating the properties of A-ring substituted nitro seco-1,2,9,9a-tetrahydrocyclopropa[c]benz[e]indol-4-ones (nitroCBIs) as hypoxia-activated prodrugs for antitumor therapy” (Bioorg Med Chem, 2010).
